Source: ChEMBL document CHEMBL4651402, “Screening of ~5500 FDA-approved drugs and clinical candidates for anti-SARS-CoV-2 activity” (2021)

Legend:
SARS-CoV-2 [1] = settings: vero c1008
in vitro = settings: chlorocebus sabaeus
SARS-CoV-2 [2] = test: microbe, parasite or virus in culture; format: functional, organism-based, Chlorocebus sabaeus, Vero C1008; settings: Severe acute respiratory syndrome coronavirus 2, Vero C1008, 48 h
SARS-CoV-2 [3] = test: microbe, parasite or virus in culture; settings: Severe acute respiratory syndrome coronavirus 2, Vero C1008, 48 h
[4] = Vero E6 (Vero C1008) cells, CC50
[5] = Vero E6 (Vero C1008) cells, pCC50

Compound | pIC50 (SARS-CoV-2 [1]) | IC50 (SARS-CoV-2 [1]) | CC50 at 48 h (in vitro; vero c1008, CC50) | CC50 at 48 h (in vitro; vero c1008, pCC50) | IC50 (SARS-CoV-2 [2]; read-out: IC50) | IC50 (SARS-CoV-2 [2]; read-out: pIC50 (converted)) | IC50 (SARS-CoV-2 [3]) | IC50 (SARS-CoV-2 [3]; read-out: pIC50 (converted)) | CC50 at 48 h (in vitro; [4]) | CC50 at 48 h (in vitro; [5])
O=S(=O)(O)c1cc(O)ccc1O [DOBESILIC ACID] | < 4.7 | – | – | – | – | – | – | – | – | –
RAUWOLFIA SERPENTINA | < 4.7 | > 20 µM | – | – | – | – | – | – | – | –
NYSTATIN | < 4.7 | > 20 µM | – | – | – | – | – | – | – | –
CC1(C)[C@H](C(=O)[O-])N2C(=O)C[C@H]2S1(=O)=O.[Na+] [SULBACTAM SODIUM] | < 4.7 | – | – | – | – | – | – | – | – | –
O=C(O)Cc1cn(-c2ccccc2)nc1-c1ccc(Cl)cc1.O=C(O)Cc1cn(-c2ccccc2)nc1-c1ccc(Cl)cc1.[Ca+2] | < 4.7 | – | – | – | – | – | – | – | – | –
ATSM COPPER (II) | < 4.7 | > 20 µM | – | – | – | – | – | – | – | –
CNCC(O)C(O)C(O)C(O)CO.Cc1c(Nc2ncccc2C(=O)O)cccc1C(F)(F)F | < 4.7 | – | – | – | – | – | – | – | – | –
CC(C)(NC(=O)O[C@@H]1CN2CCC1CC2)c1csc(-c2ccc(F)cc2)n1 | < 4.7 | > 20 µM | – | – | – | – | – | – | – | –
O=[N+]([O-])c1ccc(Cl)c([N+](=O)[O-])c1 [DINITROCHLOROBENZENE] | < 4.7 | > 20 µM | – | – | – | – | – | – | – | –
O=c1cnn([C@@H]2O[C@H](CO)[C@@H](O)[C@H]2O)c(=O)[nH]1 [6-AZAURIDINE] | – | > 100 µM | – | – | – | – | – | – | – | –
O=C(O)c1cc(=O)c2c(OCC(O)COc3cccc4oc(C(=O)O)cc(=O)c34)cccc2o1.[NaH] | < 4.7 | – | – | – | – | – | – | – | – | –
CNCCCCOc1ccccc1Cc1ccccc1 [BIFEMELANE] | – | – | 26.9 µM | 26.9 µM | 20.9 µM | 20.9 µM | > 100 µM | > 100 µM | – | –
CNCC[C@@H](Oc1cccc2ccccc12)c1cccs1 [(R)-DULOXETINE] | – | – | 16.2 µM | 16.2 µM | > 100 µM | > 100 µM | 7.24 µM | 7.24 µM | – | –
COc1cc(/C=C/C(=O)N2CCC=CC2=O)cc(OC)c1OC [PIPLARTINE] | – | – | – | – | > 50.1 µM | > 50.1 µM | > 50.1 µM | > 50.1 µM | 9.55 µM | 9.55 µM
CN1CCN(CCCN2c3ccccc3Sc3ccccc32)CC1 [PERAZINE] | – | – | – | – | > 100 µM | > 100 µM | 14 µM | 13.8 µM | 14.6 µM | 14.5 µM
CN[C@@H]1C[C@@H](c2ccc(Cl)c(Cl)c2)c2ccccc21 [(R,S)-INDATRALINE] | – | – | – | – | > 100 µM | > 100 µM | 8.32 µM | 8.32 µM | 8.51 µM | 8.51 µM
Clc1cnn(CCCCN2CCN(c3ncccn3)CC2)c1 [LESOPITRON] | – | – | – | – | > 100 µM | > 100 µM | 2.34 µM | 2.34 µM | > 100 µM | > 100 µM
CCN(CC)Cc1ccc2cc(COC(=O)Nc3ccc(C(=O)NO)cc3)ccc2c1 [GIVINOSTAT] | – | – | – | – | > 100 µM | > 100 µM | 10.5 µM | 10.5 µM | 0.767 µM | 0.759 µM
c1ccc2c(c1)Sc1ccccc1N2CC1CN2CCC1CC2 (configuration not stated) [MEQUITAZINE] | – | – | – | – | > 100 µM | > 100 µM | 7.76 µM | 7.76 µM | 7.76 µM | 7.76 µM

Compound | pIC50 (SARS-CoV-2 [1]) | IC50 (SARS-CoV-2 [1]) | CC50 at 48 h (in vitro; vero c1008, CC50) | CC50 at 48 h (in vitro; vero c1008, pCC50) | IC50 (SARS-CoV-2 [2]; read-out: IC50) | IC50 (SARS-CoV-2 [2]; read-out: pIC50 (converted)) | IC50 (SARS-CoV-2 [3]) | IC50 (SARS-CoV-2 [3]; read-out: pIC50 (converted)) | CC50 at 48 h (in vitro; [4]) | CC50 at 48 h (in vitro; [5])
CN(C)C(=O)c1cc2cnc(Nc3ccc(N4CCNCC4)cn3)nc2n1C1CCCC1 [RIBOCICLIB] | – | – | – | – | > 100 µM | > 100 µM | > 100 µM | > 100 µM | 38.9 µM | 38.9 µM
CCC(=O)c1ccc2c(c1)N(CCCN1CCN(CCO)CC1)c1ccccc1S2 [CARPHENAZINE] | – | – | – | – | > 100 µM | > 100 µM | > 100 µM | > 100 µM | 6.31 µM | 6.31 µM
CCCCCCC(C)(C)c1cc(O)c2c(c1)OC(C)(C)C1CCC(=O)CC21 (configuration not stated) [NABILONE] | – | – | – | – | > 25.1 µM | > 25.1 µM | 8.91 µM | 8.91 µM | 11.1 µM | 11 µM
Cc1c(-c2ccc(O)cc2)n(Cc2ccc(OCCN3CCCCC3)cc2)c2ccc(O)cc12 [PIPENDOXIFENE] | – | – | – | – | > 6.31 µM | > 6.31 µM | 3.63 µM | 3.63 µM | 4.62 µM | 4.57 µM
Cc1ccc(C(=O)Oc2ccc(C(O)CNC(C)(C)C)cc2OC(=O)c2ccc(C)cc2)cc1 (configuration not stated) [BITOLTEROL] | – | – | – | – | > 100 µM | > 100 µM | 8.13 µM | 8.13 µM | 5.69 µM | 5.62 µM
NCC[C@H](Oc1ccc(C(F)(F)F)cc1)c1ccccc1 [SEPROXETINE] | – | – | – | – | > 100 µM | > 100 µM | 7.59 µM | 7.59 µM | 10.6 µM | 10.5 µM
O=C(c1ccc(F)cc1)C1CCN(CCCn2c(=O)[nH]c3cc(Cl)ccc32)CC1 [MILENPERONE] | – | – | – | – | > 100 µM | > 100 µM | > 100 µM | > 100 µM | 32.4 µM | 32.4 µM
C#C[C@]1(O)CC[C@H]2[C@@H]3CCC4=CCCC[C@@H]4[C@H]3CC[C@@]21C [LYNESTRENOL] | – | – | – | – | > 50.1 µM | > 50.1 µM | > 50.1 µM | > 50.1 µM | 10.5 µM | 10.5 µM
COc1ccccc1N1CCN(CCCCNC(=O)c2ccc3ccccc3c2)CC1 [BP-897] | – | – | – | – | > 25.1 µM | > 25.1 µM | > 25.1 µM | > 25.1 µM | 30.2 µM | 30.2 µM
CN(C)CCON=C1c2ccccc2CCc2ccccc21 [NOXIPTILINE] | – | – | – | – | > 100 µM | > 100 µM | 14.1 µM | 14.1 µM | 77.6 µM | 77.6 µM
CN1CCC(=C2c3ccccc3Oc3ccc(Cl)cc32)CC1 [CLOPIPAZAN] | – | – | – | – | > 100 µM | > 100 µM | > 20 µM | > 20 µM | 15 µM | 14.8 µM
CN1CCN(CC/C=C2/c3ccccc3Sc3ccc(S(=O)(=O)N(C)C)cc32)CC1 [THIOTHIXENE] | – | – | – | – | 5.75 µM | 5.75 µM | > 100 µM | > 100 µM | 4.96 µM | 4.9 µM
CC(C)(C)NC[C@H](O)COc1ccccc1C1CCCC1 [PENBUTOLOL] | – | – | – | – | 20 µM | 20 µM | 15.1 µM | 15.1 µM | 29.5 µM | 29.5 µM
COc1ccc2c(c1)N(C[C@H](C)CN(C)C)c1ccccc1S2 [LEVOMEPROMAZINE] | – | – | – | – | > 50.1 µM | > 50.1 µM | 11.8 µM | 11.7 µM | 11.6 µM | 11.5 µM
CN(C(=O)CN(CCO)CC(=O)N(C)C(C)(C)Cc1ccccc1)C(C)(C)Cc1ccccc1 [OXETHAZAINE] | – | – | – | – | > 100 µM | > 100 µM | 18.6 µM | 18.6 µM | 26.3 µM | 26.3 µM
C[C@H]1c2ccccc2[C@@H](CCCN(C)C)c2cc(C(F)(F)F)ccc21 | – | – | – | – | 10.5 µM | 10.5 µM | > 100 µM | > 100 µM | 12 µM | 12 µM
CN(C)c1ccc(O)c2c1C[C@H]1C[C@H]3[C@H](N(C)C)C(O)=C(C(N)=O)C(=O)[C@@]3(O)C(O)=C1C2=O.Cl [MINOCYCLINE HYDROCHLORIDE] | < 4.7 | – | – | – | – | – | – | – | – | –
COc1ccc2nc3c(c(N)c2c1)CCCC3 | – | – | – | – | > 25.1 µM | > 25.1 µM | ~11.5 µM | ~11.5 µM | 47.9 µM | 47.9 µM
